A short description of data set [1]: CSF drug concentration in pediatric brain tumor patients, Ommaya reservoir samples, HPLC-QqQ MS. In kind it is in vivo, human. Conditions: for CSF penetrance class: CSF concentration class; for CSF concentration, mean: total drug, steady state; for CSF concentration, mean / detection in CSF samples: oral dosing, pediatric brain tumor patients. The method, then: Samples were obtained from patients treated at the Department of Pediatrics and Adolescent Medicine at the General Hospital of Vienna and the study was approved by the ethics committee of the Medical University of Vienna. Patient characteristics (age, weight, sex) and clinical data (tumor type, medication, radiotherapy, localization, leptomeningeal disease, serum protein levels, and CSF protein levels) were retrieved from patient charts. Clinical and serum parameters were measured within the same treatment cycle, CSF protein levels at the same date and sample collection time point. Samples were collected and snap frozen within routine clinical sampling during intraventricular chemotherapy administration.
We included samples of patients who received oral small molecule inhibitors and concomitant intraventricular therapy. […] As backbone therapy the majority of patients were treated according to the MEMMAT protocol (NCT01356290) with slight modifications in some cases as indicated in Additional file 1: Table S1. Dosing for pediatric patients was adjusted according to the treatment protocols or previous reports as outlined in Table 1. […] In two cases, samples of patients being sequentially treated with different drugs were collected as indicated in Additional file 1: Table S2. […] CSF samples (< 0.5 mL) of pediatric patients were collected using an Ommaya reservoir, immediately snap frozen and afterwards stored at − 80 °C prior to HPLC-MS analysis. Figure 1 gives general information on the workflow of CSF sample collection, sample preparation and HPLC-MS analysis. Detailed information on the analysis method and the working parameters of the HPLC-MS system(s) can be found in the supplementary material available online (Additional file 1: Figures S1 and S2 and Tables S3–4).
In a first step, we determined whether CSF samples from Ommaya reservoirs analyzed with HPLC-QqQ MS or HPLC-IMS-Q-TOF MS allow reliable detection of orally administered drugs and the respective metabolites. For that purpose, special focus was on the improvement of an HPLC-QqQ MS multi-method to quantitate the respective substances in CSF samples. The applied chromatographic gradient as well as the sensitivity of the MS detection were optimized to allow a quantitation of all mentioned analytes within one run and over a broad range of analyte concentration levels (800 ng L^− 1 to 250 μg L^− 1).
Table S2 Sequential therapies of the investigated drugs in the study cohort. The period to the prior drug is indicated in brackets.
Selleckchem (Houston, TX, USA). Standards were originally prepared as a 10 mM DMSO solution, but were further diluted with methanol to obtain stock solutions containing analyte concentrations of 10 mg L-1 and were stored at 4 °C. The internal standard (ISTD) carbamazepine (> 98 %) was obtained from Sigma-Aldrich Handels GmbH (Vienna, Austria) and used as a methanolic stock solution with a concentration of 2 g L-1, which was diluted as needed.
Succinanilic acid (p.a.) was purchased from Sigma-Aldrich Handels GmbH (Vienna, Austria) diluted to a 400 mg L-1 methanolic stock solution and stored at 4 °C.
All used solvents were HPLC grade and were purchased from VWR International GmbH (Darmstadt, […]
Formic acid (≥ 96 %) was purchased from Sigma-Aldrich Handels GmbH (Vienna, Austria).
Water was used in Millipore quality obtained from a Millipore purification system (Molsheim, France).
CSF samples (< 0.5 mL) of pediatric patients receiving cancer therapy drugs were collected using an Ommaya reservoir, and were stored at -80 °C prior to further analysis.

Data set [2] can be described thus: Calculated free (protein-unbound) drug levels in CSF, law of mass action. In kind it is in vivo, human. To be noted: law of mass action approach; for fraction unbound: human, CSF, oral, read-out: unbound fraction of the total drug amount measured in CSF. From the text:
Directly measuring free drug levels in CSF may be impossible due to low drug concentrations. Besides the experimental quantitation, if feasible, also the law of mass action can be used to predict protein-unbound drug levels. Accordingly, CSF proteins and associated drugs may be considered as center and ligand, forming a complex. Consequently, we applied the corresponding mathematical model to estimate free drug concentration. The derivation is given in further detail in the supplementary material.

For data set [3], the system named is ABCB1. Briefly: Intracellular drug accumulation in ABCB1-overexpressing KB-C1 cells with or without elacridar (ABCB1 substrate testing), HPLC-QqQ MS. The data set is classed as cell-based. Conditions: fold-change of drug accumulation upon ABCB1-inhibition with elacridar, Fig. 4 coding: > 2 fold-control unfavorable, 1–2 intermediate, < 1 favorable. The method, then: We first compared interaction of the investigated drugs with ABCB1 by measuring fluorescent substrate drug accumulation in the parental KB-3-1 (a HeLa cell derivative) cell model and its isogenic ABCB1-overexpressing KB-C1 cell model, as previously published. As a known fluorescent ABCB1 substrate calcein (derived from non-fluorescent calcein AM) was used in the presence of investigated drugs (1 μM and 10 μM) using fluorescence-activated cell sorting (FACS). The ABCB1 inhibitor elacridar was used as positive control. As this approach cannot distinguish competitive (by a substrate) and non-competitive (by a pure inhibitor) ABCB1 inhibition, KB-C1 cells were additionally exposed to the examined drugs with or without elacridar to test the actual impact of ABCB1 activity on the concentration of drug within the cells. In detail, cultivated cells were grown, washed, lysed using 100 μL methanol, centrifuged and stored at − 80 C prior to analysis. […] Finally, 100 μL supernatant were collected and analyzed using the developed HPLC-QqQ MS method (see Supplementary Material).
6. Experiments with ABCB1-overexpressing KBC1 cells
Experiments were conducted to test for a possible inhibition or substrate character of the investigatzed […]
Figure S8 ABCB1 testing. (A) Calcein accumulation assay in KB-3-1 (control) and ABCB1-overexpressing KBC1 cells. Bars depict calcein fluorescence intensity measured by fluorescence activated cell sorting (FACS). Higher bars as compared to calcein in ABCB1-overexpressing cells indicate ABCB1-inhibition. Elacridar served as positive control. (B) Accumulation of drugs upon ABCB1-inhibition with elacridar measured by HPLC-QqQ MS.
(without elacridar inhibition).
(1 picture or pasted object on this page, not shown here)

The conditions of data set [4]: metabolites detected in CSF; cited from earlier work.
Data set [5] is described as follows: Detection of drug metabolites in patient CSF, HPLC-IMS-Q-TOF MS with in silico metabolite prediction. The data set is classed as in vivo, human. From the text: In a next step, theoretical molecular formulas and related ion masses of the predicted metabolites were transferred into a database and compared to measured high-resolution Q-TOF mass spectra of biological samples. For that purpose, MassHunter Qualitative Workflows B.08.00 software (Agilent Technologies, Santa Clara, California) was used, as it enables (semi)-automated data processing. Within this procedure, theoretical and measured exact ion masses and abundances of isotopologues and molecule-cation adducts were compared. The results of this comparison were then used to evaluate the validity of the identification, which is expressed as a score. This quality measure is important as it reduces the risk of false positives that are likely in complex biological samples, especially when only the accurate mass of a molecule is used. […]
(§1) Metabolite detection and determination of collision cross sections was performed using an IMS-Q-TOF MS within a mass range of 100 – 1700 m/z in QTOF-only and IMS mode respectively. Ionization was again obtained by the means of positive electrospray ionization using 5 L min-1 of nitrogen stream with 300 °C for drying, a capillary voltage of 3.5 kV and a nebulizer pressure of 35 psig. Further parameters included a sheath gas flow of 11 L min-1 at 350 °C and a nozzle voltage of 1 kV. The fragmentor voltage was set to 400 V. Ion mobility experiments were performed with a maximal drift time of 60 ms at a frame rate of 0.9 frames per second resulting in a total of 600 TOF-transients within one frame. Data processing was achieved using IM-MS Browser B.08.00 from Agilent Technologies on the basis of ion

Data set [6] can be described thus: Matched serum sample to prove oral uptake of nintedanib, HPLC-MS. The data set is classed as in vivo, human. Conditions: one time point, patient #4.
For data set [7] the following is noted: cited from earlier work.
Data set [8] in a line: Collision cross section by HPLC-IMS-Q-TOF MS. The data set is classed as physicochemical.
Source text: Data processing was achieved using MassHunter Workstation Software B.05.02 from Agilent […]
for quantitation, including all transitions and corresponding collision energies as well as fragmentor voltages and retention times.
Table S3 Overview of the used QqQ transitions for quantitative and qualitative characterization in Dynamic MRM Mode using 7 V of cell acceleration voltage, 500 ms cycle time and positive polarization within an Agilent 6420 QqQ.
Compound Precursor Ion Product Ion / r.t. / min Fragmentor / Collision […]
as §1

Entries after “also recorded” stand apart in the source; their conditions may differ. Bounds are passed on as bounds.

A word on the fraction unbound: it is the share of the substance not bound to proteins or other matrix. A word on the half-life: it is how long it takes for the measured level to halve.

Consider `Cc1nc(Nc2ncc(C(=O)Nc3c(C)cccc3Cl)s2)cc(N2CCN(CCO)CC2)n1` [dasatinib], for which, in data set [1], the CSF penetrance class result was “moderate (moderate (1–10 nM))” and the “CSF concentration, mean” value is listed as 1.2 nM. In addition, in data set [1] (CSF samples of pediatric patients), the “proportion of CSF samples in which the drug was detected” value is 66%. For the same compound, in data set [2], the fraction unbound is around 0.99 and the “calculated free, unbound CSF concentration, mean” value is 1 nM. For the same compound, in data set [3], the ABCB1 substrate evaluation entry is “highly transported by ABCB1”.
Regarding `Cc1ccc(NC(=O)c2ccc(CN3CCNCC3)cc2)cc1Nc1nccc(-c2cccnc2)n1` [demethylated imatinib], the “Active / Inactive (biological activity of metabolite)” value in data set [4] was “active”. Moreover, the “metabolite identification in CSF” value in data set [5] is listed as “identified”.
`CNC(=O)c1cc2cnc(Nc3ccc(N4CCNCC4)cn3)nc2n1C1CCCC1` [demethylated ribociclib]: the “Active / Inactive (biological activity of metabolite)” value in data set [4] is listed as “active”. Moreover, in data set [5], the “metabolite identification in CSF” value is “identified”.
For the compound `O=C(CCCCCCC(=O)Nc1ccccc1)NO[C@@H]1O[C@H](C(=O)O)[C@@H](O)[C@H](O)[C@H]1O` [glucuronidated vorinostat], the “Active / Inactive (biological activity of metabolite)” value in data set [4] is “inactive”. Also, the “metabolite identification in CSF” value in data set [5] is on record as “identified”.
As to `COC(=O)c1ccc2c(c1)NC(=O)/C2=C(\Nc1ccc(N(C)C(=O)CN2CCN(C)CC2)cc1)c1ccccc1` [nintedanib], the “detection in CSF samples” value in data set [1] was “not detected; also recorded: not identified”. This compound also gave a serum concentration in data set [6] of 30 nM. Moreover, the ABCB1 substrate evaluation result in data set [3] is recorded as “intermediate”.
On to `Cc1[nH]c2ccccc2c1CCNCc1ccc(/C=C/C(=O)NO)cc1` [panobinostat], for which, in data set [1], the “detection in CSF samples” value is “not detected; also recorded: untraceable”. Moreover, in data set [7] (children, higher panobinostat doses), the “panobinostat levels in a published study” value is recorded as “below the detection limit”. Besides, in data set [7], the half-life is 31 h. The ABCB1 substrate evaluation result in data set [3] is given as “highly transported by ABCB1”.
Regarding `CNC(=O)c1cc(Oc2ccc(NC(=O)Nc3ccc(Cl)c(C(F)(F)F)c3)c(F)c2)ccn1` [regorafenib], in data set [1], the CSF penetrance class entry was “moderate (moderate (1–10 nM))” and the “CSF concentration, mean” value is on record as 6.7 nM. In data set [8], the “CCS value relative to that expected from the MW” value is reported as “significantly lower”. Further, in data set [2], the fraction unbound was below 0.6 and the “calculated free, unbound CSF concentration, mean” value is recorded as 3.9 nM. Further, the “protein binding in serum” value in data set [7] (serum) is on record as 99.5%. In addition, in data set [3], the ABCB1 substrate evaluation result was “most favorable”.
On to `CN(C)C(=O)c1cc2cnc(Nc3ccc(N4CCNCC4)cn3)nc2n1C1CCCC1` [ribociclib], for which, in data set [1], the CSF penetrance class entry is reported as “high (high (> 10 nM))” and the “CSF concentration, mean” value worked out at 44.1 nM. The “level detected in CSF of our patient” value in data set [1] (pediatric patient, 3.33 mg/kg daily, as quoted in discussion) is given as 43 nM. For the same compound, in data set [2], the fraction unbound was around 0.99 and the “calculated free, unbound CSF concentration, mean” value was 43.5 nM. The ABCB1 substrate evaluation entry in data set [3] is reported as “intermediate”.
For the compound `O=C(O)CCC(=O)Nc1ccccc1` [succinanilic acid], the “Active / Inactive (biological activity of metabolite)” value in data set [4] was “inactive”. For the same compound, in data set [5], the “metabolite identification in CSF” value is recorded as “identified; also recorded: high concentrations”.
As to `O=C(CCCCCCC(=O)Nc1ccccc1)NO` [vorinostat], in data set [1], the CSF penetrance class result was “high (high (> 10 nM))” and the “CSF concentration, mean” value is reported as 75.4 nM. For the same compound, in data set [2], the fraction unbound is around 0.99 and the “calculated free, unbound CSF concentration, mean” value was 75.3 nM. Also, in data set [3], the ABCB1 substrate evaluation entry is reported as “most favorable”.

The values above are taken from publication PMC7268320, “Cerebrospinal fluid penetration of targeted therapeutics in pediatric brain tumor patients” (Acta Neuropathologica Communications, 2020).
